How the values were obtained:
[1] = test system: Sprague Dawley rats, 6-OHDA lesion; assay: Amphetamine-induced rotations, moderate 6-OHDA hemi-parkinsonian rat model (study 2); type: in vivo; conditions: more severe (40%) lesion, three injections 15 mg/kg i.p., vs vehicle
Method: Rats were treated with 2LS98Lac or saline (vehicle) as outlined in the Schemes in Figures 9A,B via intraperitoneal (i.p.) injection (15 mg/kg). All animals were made hemi-parkinsonian with unilateral, striatal 6-hydroxydopamine (Sigma Aldrich, St. Louis, MO) injections. After surgery, behavioral assessments were done at 2- and 4-weeks post-surgery. 24 h after the last test animals were either euthanized and whole brains were harvested for future biochemical analysis or perfused and brains collected for immunohistochemistry and stereological assessment of tyrosine hydroxylase-positive (TH+) cells remaining in the SNc. In study 1: n = 16 each group were included, and all underwent the behavioral analysis: n = 16, and for the stereology in the SNc, n = 8 each group was used. […]
In order to pharmacologically assess the degree of dopaminergic (DA) depletion in the lesioned side, animals were given amphetamine, an indirectly acting DA agonist and placed into a plexiglass cylinder (38 cm tall × 38 cm across) enclosed in an open field box ([Yue et al., 2011]). Dextro-amphetamine in sterile 0.9% saline (Sigma-Aldrich) was injected i.p. at 5 mg/kg, and rotations were recorded from above using Logitech HD web cameras connected to an Acer Aspire SWS-015 computer. An observer blinded to the groups counted rotations in both the ipsilateral and contralateral rotations for the entire 70 min period. […]

[2] = test system: Sprague Dawley rats, 6-OHDA lesion; assay: Striatal TH expression, semi-quantitative western analysis (study 2); type: in vivo, rat; conditions: more severe (40%) lesion, vs vehicle
Method: Rats were treated with 2LS98Lac or saline (vehicle) as outlined in the Schemes in Figures 9A,B via intraperitoneal (i.p.) injection (15 mg/kg). All animals were made hemi-parkinsonian with unilateral, striatal 6-hydroxydopamine (Sigma Aldrich, St. Louis, MO) injections. After surgery, behavioral assessments were done at 2- and 4-weeks post-surgery. 24 h after the last test animals were either euthanized and whole brains were harvested for future biochemical analysis or perfused and brains collected for immunohistochemistry and stereological assessment of tyrosine hydroxylase-positive (TH+) cells remaining in the SNc. In study 1: n = 16 each group were included, and all underwent the behavioral analysis: n = 16, and for the stereology in the SNc, n = 8 each group was used. In study 2: n = 23 each group were included. […] In the 2LS98Lac group, one video at 4 weeks was lost, reducing n = 22 in this specific analysis, and for the stereology, 2 brains were damaged during processing and could not be included in the stereology of the SNc, therefore […]. For biochemical subanalyses, n = 8 each group. For the microglial morphology subanalysis n = 7 each group.
FIGURE 9 | Evaluation of neuroprotection of the PACAP glycopeptide 2LS98Lac in rat Parkinson’s disease models. (A) Scheme for study 1, using a mild PD lesion. (B) Scheme for study 2, using a moderate PD lesion. […]

In the case of `[2H]C([2H])([2H])C([2H])(C([2H])([2H])[2H])[C@]([2H])(NC(=O)[C@H](C)NC(=O)[C@H](C)NC(=O)[C@H](CC(C)C)NC(=O)[C@H](Cc1ccc(O)cc1)NC(=O)[C@H](CCCCN)NC(=O)[C@H](CCCCN)NC(=O)[C@@]([2H])(NC(=O)[C@H](C)NC(=O)[C@H](CC(C)C)NC(=O)[C@H](CCC(N)=O)NC(=O)[C@H](CCCCN)NC(=O)[C@H](CCCNC(=N)N)NC(=O)[C@H](Cc1ccc(O)cc1)NC(=O)[C@H](CCCNC(=N)N)NC(=O)[C@H](CO)NC(=O)[C@H](Cc1ccc(O)cc1)NC(=O)[C@H](CO)NC(=O)[C@H](CC(=O)O)NC(=O)[C@@H](NC(=O)[C@H](Cc1ccccc1)NC(=O)[C@@H](NC(=O)CNC(=O)[C@H](CC(=O)O)NC(=O)[C@H](CO)NC(=O)[C@@H](N)Cc1c[nH]cn1)[C@@H](C)CC)[C@@H](C)O)C([2H])(C([2H])([2H])[2H])C([2H])([2H])[2H])C(=O)N[C@@H](CC(C)C)C(=O)N[C@@H](CO[C@@H]1O[C@H](CO)[C@@H](O[C@@H]2O[C@H](CO)[C@H](O)[C@H](O)[C@H]2O)[C@H](O)[C@H]1O)C(N)=O` [Compound 2LS98Lac], the “Amphetamine-induced rotations at 2 weeks post-lesion” value [1] is reported as “did not see a difference”, the “Amphetamine-induced rotations at 4 weeks post-lesion” value [1] is reported as “did not see a difference” and the “Striatal TH” value [2] is reported as “no significant difference”.

Reference: paper PMC8887546, “Design and Synthesis of Brain Penetrant Glycopeptide Analogues of PACAP With Neuroprotective Potential for Traumatic Brain Injury and Parkinsonism” (Frontiers in drug discovery, 2022)
